{"source": "patent US12268674B2", "about": "“Mi-2β inhibitor as an immunotherapy agent” (BioVentures, LLC, priority 2021, dated 2025)", "experiment_in_all_cases": "ATPase profile (ATP acyl phosphate probe)", "type_in_all_cases": "binding", "key": {"ABCB7": {"biological_target": "T1, ABCB7 (Homo sapiens, UniProt O75027)", "T1 construct": "to get the native cell lysate; host or cells: A375 cell lysate", "settings": "ABCB7, SEQ ID NO: 4, ATP BS"}, "ABCC2": {"biological_target": "T2, ABCC2 (Homo sapiens, UniProt Q92887)", "T2 construct": "to get the native cell lysate; host or cells: A375 cell lysate", "settings": "ABCC2, SEQ ID NO: 8, ATP BS"}, "AK3": {"biological_target": "T3, AK3 (Homo sapiens, UniProt Q9UIJ7)", "T3 construct": "to get the native cell lysate; host or cells: A375 cell lysate", "settings": "AK3, SEQ ID NO: 34, ATP BS"}, "ASS1": {"biological_target": "T4, ASS1 (Homo sapiens, UniProt P00966)", "T4 construct": "to get the native cell lysate; host or cells: A375 cell lysate", "settings": "ASS1, SEQ ID NO: 43, ATP BS"}, "BAT1, DDX39": {"tested_on": "BAT1, DDX39", "settings": "BAT1, DDX39, SEQ ID NO: 50, ATP BS"}, "DDX28": {"biological_target": "T5, DDX28 (Homo sapiens, UniProt Q9NUL7)", "T5 construct": "endogenous in cells; host or cells: A375 cell lysate", "settings": "DDX28, SEQ ID NO: 68, ATP BS"}, "ENPP1": {"biological_target": "T6, ENPP1 (Homo sapiens, UniProt P22413)", "T6 construct": "endogenous in cells; host or cells: A375 cell lysate", "T6 sequence (P22413 whole entry)": "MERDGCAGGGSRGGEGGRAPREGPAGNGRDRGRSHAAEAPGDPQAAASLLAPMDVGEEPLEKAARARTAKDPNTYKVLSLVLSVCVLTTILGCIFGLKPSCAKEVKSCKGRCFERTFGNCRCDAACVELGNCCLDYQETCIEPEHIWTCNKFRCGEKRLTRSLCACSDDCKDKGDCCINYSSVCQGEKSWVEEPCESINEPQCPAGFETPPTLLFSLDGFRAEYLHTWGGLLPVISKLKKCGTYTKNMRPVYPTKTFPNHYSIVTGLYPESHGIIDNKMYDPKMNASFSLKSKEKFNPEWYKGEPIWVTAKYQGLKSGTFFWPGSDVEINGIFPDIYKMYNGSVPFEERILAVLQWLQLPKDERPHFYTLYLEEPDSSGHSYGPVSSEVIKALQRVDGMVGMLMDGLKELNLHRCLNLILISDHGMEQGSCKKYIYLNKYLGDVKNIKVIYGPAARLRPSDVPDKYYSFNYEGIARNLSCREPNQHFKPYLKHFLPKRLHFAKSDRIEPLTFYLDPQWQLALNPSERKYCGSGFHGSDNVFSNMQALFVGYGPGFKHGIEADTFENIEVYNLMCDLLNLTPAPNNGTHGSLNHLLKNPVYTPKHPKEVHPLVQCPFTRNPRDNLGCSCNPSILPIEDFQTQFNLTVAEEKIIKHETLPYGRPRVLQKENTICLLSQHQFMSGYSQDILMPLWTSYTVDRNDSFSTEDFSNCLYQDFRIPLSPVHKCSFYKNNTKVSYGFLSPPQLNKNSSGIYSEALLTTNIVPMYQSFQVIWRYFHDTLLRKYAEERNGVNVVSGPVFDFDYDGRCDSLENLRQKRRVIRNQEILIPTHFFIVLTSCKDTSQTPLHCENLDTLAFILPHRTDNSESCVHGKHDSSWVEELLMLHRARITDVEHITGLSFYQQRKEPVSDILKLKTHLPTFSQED", "settings": "ENPP1, SEQ ID NO: 76, ATP BS"}, "EPRS": {"biological_target": "T7, EPRS (Homo sapiens, UniProt P07814)", "T7 construct": "endogenous in cells; host or cells: A375 cell lysate", "settings": "SEQ ID NO: 77, ATP BS"}, "GATB": {"biological_target": "T8, GATB (Homo sapiens, UniProt O75879)", "T8 construct": "endogenous in cells; host or cells: A375 cell lysate", "T8 sequence (O75879 31-557)": "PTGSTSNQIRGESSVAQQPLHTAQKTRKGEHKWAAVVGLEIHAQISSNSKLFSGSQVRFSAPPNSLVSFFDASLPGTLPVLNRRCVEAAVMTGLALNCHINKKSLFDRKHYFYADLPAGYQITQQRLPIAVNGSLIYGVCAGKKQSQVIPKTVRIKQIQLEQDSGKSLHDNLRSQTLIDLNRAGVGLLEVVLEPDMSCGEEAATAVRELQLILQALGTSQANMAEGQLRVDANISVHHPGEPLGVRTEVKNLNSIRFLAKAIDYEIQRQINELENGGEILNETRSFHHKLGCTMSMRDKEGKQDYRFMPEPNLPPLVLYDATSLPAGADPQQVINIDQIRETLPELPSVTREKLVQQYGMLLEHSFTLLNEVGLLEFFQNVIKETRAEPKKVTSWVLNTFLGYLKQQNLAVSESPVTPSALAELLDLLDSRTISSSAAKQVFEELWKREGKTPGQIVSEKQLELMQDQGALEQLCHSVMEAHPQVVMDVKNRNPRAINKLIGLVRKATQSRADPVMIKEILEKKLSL", "T8 sequence (Q9H0R6 whole entry partner)": "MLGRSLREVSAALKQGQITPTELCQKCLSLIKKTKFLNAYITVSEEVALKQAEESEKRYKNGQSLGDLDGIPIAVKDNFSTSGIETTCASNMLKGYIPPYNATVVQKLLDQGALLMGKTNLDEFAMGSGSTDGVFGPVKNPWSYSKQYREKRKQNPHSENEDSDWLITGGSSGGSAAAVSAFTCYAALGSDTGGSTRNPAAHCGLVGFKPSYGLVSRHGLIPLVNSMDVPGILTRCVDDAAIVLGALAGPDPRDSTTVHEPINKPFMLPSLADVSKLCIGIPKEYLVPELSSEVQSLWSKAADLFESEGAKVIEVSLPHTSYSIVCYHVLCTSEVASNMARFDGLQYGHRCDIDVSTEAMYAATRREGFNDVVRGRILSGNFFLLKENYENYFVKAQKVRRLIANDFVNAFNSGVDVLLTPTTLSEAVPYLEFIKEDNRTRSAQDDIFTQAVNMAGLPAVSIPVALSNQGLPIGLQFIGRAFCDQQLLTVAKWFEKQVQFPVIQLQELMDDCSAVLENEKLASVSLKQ", "T8 sequence (O43716 58-136 partner)": "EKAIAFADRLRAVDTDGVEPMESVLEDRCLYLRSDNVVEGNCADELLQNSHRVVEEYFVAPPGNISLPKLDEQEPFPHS"}, "HNRNPU": {"biological_target": "T9, HNRNPU (Homo sapiens, UniProt Q00839)", "T9 construct": "endogenous in cells; host or cells: A375", "settings": "SEQ ID NO: 92, ATP BS"}, "HSP90AB1": {"biological_target": "T10, HSP90AB1 (Homo sapiens, UniProt P08238)", "T10 construct": "to get the native cell lysate; endogenous in cells; host or cells: A375", "settings": "HSP90AB1, SEQ ID NO: 97, ATP BS"}, "KARS": {"biological_target": "T11, KARS (Homo sapiens, UniProt Q15046)", "T11 construct": "to get the native cell lysate; endogenous in cells; host or cells: A375", "settings": "SEQ ID NO: 112, ATP BS"}, "ME2": {"biological_target": "T12, ME2 (Homo sapiens, UniProt P23368)", "T12 construct": "to get the native cell lysate; endogenous in cells; host or cells: A375", "T12 sequence (P23368 19-584)": "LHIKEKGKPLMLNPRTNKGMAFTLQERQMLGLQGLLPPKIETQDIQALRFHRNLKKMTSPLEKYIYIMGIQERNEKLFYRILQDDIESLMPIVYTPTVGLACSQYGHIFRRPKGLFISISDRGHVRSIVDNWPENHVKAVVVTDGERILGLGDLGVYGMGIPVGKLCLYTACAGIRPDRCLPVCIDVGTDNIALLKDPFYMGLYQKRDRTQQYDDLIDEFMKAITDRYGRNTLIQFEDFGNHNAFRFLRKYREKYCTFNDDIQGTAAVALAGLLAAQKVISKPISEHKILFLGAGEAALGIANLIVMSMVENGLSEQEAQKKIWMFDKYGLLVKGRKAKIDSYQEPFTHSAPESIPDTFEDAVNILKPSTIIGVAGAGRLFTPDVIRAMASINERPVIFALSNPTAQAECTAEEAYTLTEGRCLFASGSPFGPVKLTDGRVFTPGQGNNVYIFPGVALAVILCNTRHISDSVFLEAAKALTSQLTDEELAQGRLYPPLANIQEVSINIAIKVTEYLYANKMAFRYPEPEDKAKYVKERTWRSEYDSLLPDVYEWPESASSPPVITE"}, "NADK2": {"biological_target": "T13, NADK2 (Homo sapiens, UniProt Q4G0N4)", "T13 construct": "to get the native cell lysate; endogenous in cells; host or cells: A375", "settings": "NADK2, SEQ ID NO: 129, ATP BS"}, "PGK1": {"biological_target": "T14, PGK1 (Homo sapiens, UniProt P00558)", "T14 construct": "to get the native cell lysate; endogenous in cells; host or cells: A375 cell lysate", "T14 sequence (P00558 whole entry)": "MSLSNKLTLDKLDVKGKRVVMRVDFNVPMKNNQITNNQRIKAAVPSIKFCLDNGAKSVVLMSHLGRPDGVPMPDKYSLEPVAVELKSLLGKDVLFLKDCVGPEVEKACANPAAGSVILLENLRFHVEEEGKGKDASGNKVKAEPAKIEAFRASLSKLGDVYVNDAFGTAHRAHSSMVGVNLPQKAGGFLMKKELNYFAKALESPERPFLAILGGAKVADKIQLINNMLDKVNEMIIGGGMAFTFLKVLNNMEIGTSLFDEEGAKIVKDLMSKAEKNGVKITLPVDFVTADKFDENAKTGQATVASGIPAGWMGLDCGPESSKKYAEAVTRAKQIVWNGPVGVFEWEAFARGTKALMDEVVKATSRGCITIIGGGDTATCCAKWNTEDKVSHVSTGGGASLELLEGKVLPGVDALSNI", "settings": "PGK1, SEQ ID NO: 160, ATP BS"}, "PMVK": {"biological_target": "T15, PMVK (Homo sapiens, UniProt Q15126)", "T15 construct": "to get the native cell lysate; endogenous in cells; host or cells: A375 cell lysate", "T15 sequence (Q15126 whole entry)": "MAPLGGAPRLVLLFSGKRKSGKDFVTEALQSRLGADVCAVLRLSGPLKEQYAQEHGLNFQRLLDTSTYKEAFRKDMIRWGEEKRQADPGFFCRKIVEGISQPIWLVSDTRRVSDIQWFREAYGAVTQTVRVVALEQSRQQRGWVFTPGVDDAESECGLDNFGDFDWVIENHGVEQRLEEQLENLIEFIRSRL", "settings": "SEQ ID NO: 163, ATP BS"}, "POLR3A": {"biological_target": "POLR3A (Homo sapiens, UniProt O14802)", "settings": "SEQ ID NO: 164, ATP BS"}, "PRKAG2": {"biological_target": "PRKAG2 (Homo sapiens, UniProt Q9UGJ0)", "settings": "PRKAG2, SEQ ID NO: 170, ATP BS"}, "PSMC6": {"biological_target": "T16, PSMC6 (Homo sapiens, UniProt P62333)", "T16 construct": "to get the native cell lysate; endogenous in cells; host or cells: A375 cell lysate", "settings": "PSMC6, SEQ ID NO: 178, ATP BS"}, "RAD17": {"biological_target": "T17, RAD17 (Homo sapiens, UniProt O75943)", "T17 construct": "to get the native cell lysate; endogenous in cells; host or cells: A375 cell lysate", "settings": "RAD17, SEQ ID NO: 181, ATP BS"}, "RBKS": {"biological_target": "T18, RBKS (Homo sapiens, UniProt Q9H477)", "T18 construct": "to get the native cell lysate; endogenous in cells; host or cells: A375 cell lysate", "T18 sequence (Q9H477 whole entry)": "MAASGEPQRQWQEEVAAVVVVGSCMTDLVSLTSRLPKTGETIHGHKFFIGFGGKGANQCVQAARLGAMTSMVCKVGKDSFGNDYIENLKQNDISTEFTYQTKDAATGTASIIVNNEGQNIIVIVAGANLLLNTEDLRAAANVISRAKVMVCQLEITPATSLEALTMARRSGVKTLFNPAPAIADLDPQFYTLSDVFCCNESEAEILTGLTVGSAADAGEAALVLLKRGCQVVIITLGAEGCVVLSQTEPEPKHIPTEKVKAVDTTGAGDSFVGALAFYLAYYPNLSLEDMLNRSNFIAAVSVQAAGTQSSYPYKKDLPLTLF", "settings": "SEQ ID NO: 182, ATP BS"}, "RFC4": {"biological_target": "T19, RFC4 (Homo sapiens, UniProt P35249)", "T19 construct": "to get the native cell lysate; endogenous in cells; host or cells: A375 cell lysate", "settings": "RFC4, SEQ ID NO: 185, ATP BS"}, "RFC5": {"biological_target": "T20, RFC5 (Homo sapiens, UniProt P40937)", "T20 construct": "to get the native cell lysate; endogenous in cells; host or cells: A375 cell lysate", "settings": "RFC5, SEQ ID NO: 186, ATP BS"}, "SLC25A24": {"biological_target": "T21, SLC25A24 (Homo sapiens, UniProt Q6NUK1)", "T21 construct": "to get the native cell lysate; endogenous in cells; host or cells: A375 cell lysate", "settings": "SLC25A24, SEQ ID NO: 192, ATP BS"}, "SNRNP200": {"biological_target": "T22, SNRNP200 (Homo sapiens, UniProt O75643)", "T22 construct": "to get the native cell lysate; endogenous in cells; host or cells: A375 cell lysate", "settings": "SNRNP200, SEQ ID NO: 196, ATP BS"}, "TOR1B": {"biological_target": "T23, TOR1B (Homo sapiens, UniProt O14657)", "T23 construct": "to get the native cell lysate; endogenous in cells; host or cells: A375 cell lysate", "T23 sequence (O14657 25-336)": "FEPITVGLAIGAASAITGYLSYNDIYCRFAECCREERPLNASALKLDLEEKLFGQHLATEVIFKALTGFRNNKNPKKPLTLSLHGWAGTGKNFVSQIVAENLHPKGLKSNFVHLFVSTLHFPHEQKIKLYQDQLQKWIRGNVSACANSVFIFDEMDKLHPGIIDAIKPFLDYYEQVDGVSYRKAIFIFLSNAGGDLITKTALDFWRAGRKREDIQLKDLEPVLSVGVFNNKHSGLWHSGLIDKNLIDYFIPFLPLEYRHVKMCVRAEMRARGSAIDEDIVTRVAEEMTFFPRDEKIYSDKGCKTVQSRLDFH", "settings": "SEQ ID NO: 204, ATP BS"}, "UBA5": {"biological_target": "T24, UBA5 (Homo sapiens, UniProt Q9GZZ9)", "T24 construct": "to get the native cell lysate; endogenous in cells; host or cells: A375 cell lysate", "settings": "UBA5, SEQ ID NO: 221, ATP BS"}, "UPF1": {"biological_target": "T25, UPF1 (Homo sapiens, UniProt Q92900)", "T25 construct": "to get the native cell lysate; endogenous in cells; host or cells: A375 cell lysate", "T25 sequence (Q92900 whole entry)": "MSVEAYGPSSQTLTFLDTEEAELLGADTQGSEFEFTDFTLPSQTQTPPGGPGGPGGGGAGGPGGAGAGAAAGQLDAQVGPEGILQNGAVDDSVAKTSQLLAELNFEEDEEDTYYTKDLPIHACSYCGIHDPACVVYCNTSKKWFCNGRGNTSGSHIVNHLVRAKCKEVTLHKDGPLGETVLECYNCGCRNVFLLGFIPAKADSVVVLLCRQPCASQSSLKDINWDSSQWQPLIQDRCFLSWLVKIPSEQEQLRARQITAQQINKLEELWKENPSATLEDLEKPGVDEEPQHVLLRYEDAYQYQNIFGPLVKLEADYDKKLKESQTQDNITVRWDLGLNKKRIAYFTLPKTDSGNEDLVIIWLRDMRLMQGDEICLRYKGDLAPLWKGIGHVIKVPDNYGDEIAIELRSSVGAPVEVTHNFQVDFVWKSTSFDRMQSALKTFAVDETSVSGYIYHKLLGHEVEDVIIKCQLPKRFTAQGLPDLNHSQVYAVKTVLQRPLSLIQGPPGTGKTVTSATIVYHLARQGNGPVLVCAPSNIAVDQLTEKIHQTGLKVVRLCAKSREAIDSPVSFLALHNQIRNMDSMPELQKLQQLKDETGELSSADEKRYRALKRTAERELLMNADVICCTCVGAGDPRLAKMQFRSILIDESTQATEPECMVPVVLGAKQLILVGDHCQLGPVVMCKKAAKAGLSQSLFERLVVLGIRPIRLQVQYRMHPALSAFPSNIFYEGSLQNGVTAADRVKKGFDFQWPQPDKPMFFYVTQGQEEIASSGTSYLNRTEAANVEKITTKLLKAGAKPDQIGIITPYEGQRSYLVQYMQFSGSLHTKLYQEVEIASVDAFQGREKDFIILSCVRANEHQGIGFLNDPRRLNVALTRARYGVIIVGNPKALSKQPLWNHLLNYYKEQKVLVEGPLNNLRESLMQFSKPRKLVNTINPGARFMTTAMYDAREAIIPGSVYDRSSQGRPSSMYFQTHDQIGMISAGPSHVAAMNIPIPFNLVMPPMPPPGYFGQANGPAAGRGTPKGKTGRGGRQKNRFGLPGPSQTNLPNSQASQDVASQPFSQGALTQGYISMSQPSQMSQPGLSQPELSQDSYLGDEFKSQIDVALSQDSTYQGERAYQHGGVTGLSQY"}, "XRCC3": {"biological_target": "T26, XRCC3 (Homo sapiens, UniProt O43542)", "T26 construct": "to get the native cell lysate; endogenous in cells; host or cells: A375 cell lysate", "settings": "XRCC3, SEQ ID NO: 230, ATP BS"}}}
{"smiles": "Cn1c(=O)[nH]c2ccc(-c3cccc(C(=O)NC4CCn5ccnc5C4)c3)cc21", "note": "(centres unmarked) [Z36-MP5, 3-(3-methyl-2-oxo-2,3-dihydro-1H-benzo[d]imidazol-5-yl)-N-(5,6,7,8-tetrahydroimidazo[1,2-a]pyridin-7-yl)benzamide]", "values": [{"measurement": "Inhibition (%) by 1 μM Z36-MP5", "setting": "ABCB7", "result": 0.34, "unit": "%"}, {"measurement": "Inhibition (%) by 1 μM Z36-MP5", "setting": "ABCC2", "result": 4.09, "unit": "%"}, {"measurement": "Inhibition (%) by 1 μM Z36-MP5", "setting": "AK3", "result": 19.58, "unit": "%"}, {"measurement": "Inhibition (%) by 1 μM Z36-MP5", "setting": "ASS1", "result": 0.53, "unit": "%"}, {"measurement": "Inhibition (%) by 1 μM Z36-MP5", "setting": "BAT1, DDX39", "result": "−10.93", "unit": "%"}, {"measurement": "Inhibition (%) by 1 μM Z36-MP5", "setting": "DDX28", "result": "−5.30", "unit": "%"}, {"measurement": "Inhibition (%) by 1 μM Z36-MP5", "setting": "ENPP1", "result": 8.04, "unit": "%"}, {"measurement": "Inhibition (%) by 1 μM Z36-MP5", "setting": "EPRS", "result": 0.78, "unit": "%"}, {"measurement": "Inhibition (%) by 1 μM Z36-MP5", "setting": "GATB; SEQ ID NO: 83, ATP BS", "result": "−15.35", "unit": "%"}, {"measurement": "Inhibition (%) by 1 μM Z36-MP5", "setting": "GATB; SEQ ID NO: 84, ATP BS", "result": "−4.32", "unit": "%"}, {"measurement": "Inhibition (%) by 1 μM Z36-MP5", "setting": "HNRNPU", "result": 6.85, "unit": "%"}, {"measurement": "Inhibition (%) by 1 μM Z36-MP5", "setting": "HSP90AB1", "result": "−3.22", "unit": "%"}, {"measurement": "Inhibition (%) by 1 μM Z36-MP5", "setting": "KARS", "result": 2.22, "unit": "%"}, {"measurement": "Inhibition (%) by 1 μM Z36-MP5", "setting": "ME2; ME2, SEQ ID NO: 122, ATP BS", "result": "−6.47", "unit": "%"}, {"measurement": "Inhibition (%) by 1 μM Z36-MP5", "setting": "ME2; ME2, SEQ ID NO: 123, ATP BS", "result": "−16.71", "unit": "%"}, {"measurement": "Inhibition (%) by 1 μM Z36-MP5", "setting": "NADK2", "result": "−11.03", "unit": "%"}, {"measurement": "Inhibition (%) by 1 μM Z36-MP5", "setting": "PGK1", "result": "−4.49", "unit": "%"}, {"measurement": "Inhibition (%) by 1 μM Z36-MP5", "setting": "PMVK", "result": "−5.60", "unit": "%"}, {"measurement": "Inhibition (%) by 1 μM Z36-MP5", "setting": "POLR3A", "result": 4.31, "unit": "%"}, {"measurement": "Inhibition (%) by 1 μM Z36-MP5", "setting": "PRKAG2", "result": "−22.54", "unit": "%"}, {"measurement": "Inhibition (%) by 1 μM Z36-MP5", "setting": "PSMC6", "result": "−0.83", "unit": "%"}, {"measurement": "Inhibition (%) by 1 μM Z36-MP5", "setting": "RAD17", "result": 15.62, "unit": "%"}, {"measurement": "Inhibition (%) by 1 μM Z36-MP5", "setting": "RBKS", "result": "−1.64", "unit": "%"}, {"measurement": "Inhibition (%) by 1 μM Z36-MP5", "setting": "RFC4", "result": "−6.66", "unit": "%"}, {"measurement": "Inhibition (%) by 1 μM Z36-MP5", "setting": "RFC5", "result": 2.11, "unit": "%"}, {"measurement": "Inhibition (%) by 1 μM Z36-MP5", "setting": "SLC25A24", "result": 11.88, "unit": "%"}, {"measurement": "Inhibition (%) by 1 μM Z36-MP5", "setting": "SNRNP200", "result": "−14.27", "unit": "%"}, {"measurement": "Inhibition (%) by 1 μM Z36-MP5", "setting": "TOR1B", "result": 2.00, "unit": "%"}, {"measurement": "Inhibition (%) by 1 μM Z36-MP5", "setting": "UBA5", "result": "−12.85", "unit": "%"}, {"measurement": "Inhibition (%) by 1 μM Z36-MP5", "setting": "UPF1; UPF1, SEQ ID NO: 223, ATP BS", "result": "−1.93", "unit": "%"}, {"measurement": "Inhibition (%) by 1 μM Z36-MP5", "setting": "UPF1; UPF1, SEQ ID NO: 224, ATP BS", "result": "−3.51", "unit": "%"}, {"measurement": "Inhibition (%) by 1 μM Z36-MP5", "setting": "XRCC3", "result": "−4.81", "unit": "%"}]}
